Square brackets hold non-standard residues; d marks the D form. Peptide text beside a SMILES is read from it. d(hArg(Et2)) = CCN=C(NCC)NCCCC[C@@H](N)C(=O)O; hArg(Et2) = CCN=C(NCC)NCCCC[C@H](N)C(=O)O; dPhe(4-Cl) = N[C@H](Cc1ccc(Cl)cc1)C(=O)O; d2Nal = N[C@H](Cc1ccc2ccccc2c1)C(=O)O; d3Pal = N[C@H](Cc1cccnc1)C(=O)O
Legend:
pituitary-gonadal axis = details: cited from earlier work
premature LH surges = assay: phase II double-blind dose-finding study of ganirelix in women undergoing controlled ovarian hyperstimulation with recFSH; format: in vivo, human
Procedure: In order to establish the minimum effective dose of ganirelix to prevent premature LH surges in women undergoing COH with recombinant FSH, a double-blind dose-finding study was performed with 6 test doses ranging between 2 mg and 0.0625 mg ganirelix.
This study was a phase II, multi-centre, double-blind, randomized, dose-finding study to assess the efficacy of the GnRH-antagonist ganirelix to prevent premature LH surges in women undergoing controlled ovarian hyperstimulation with recFSH. The dosages of ganirelix are administered by one daily SC administration.
RecFSH treatment started on day 2 of the menstrual cycle (treatment day -5) by a once daily SC injection. From treatment day -5 through day -1 the dose of recFSH was fixed at 150 IU daily. After 5 days of recFSH treatment (day 7 of the menstrual cycle), ganirelix treatment was started by daily SC administration. Treatment continued until and including the last day of recFSH administration. During ganirelix treatment, the dose of recFSH was adjusted depending on the individual ovarian response as assessed by daily ultra sonographic scan (USS). As soon as at least 3 folicles ≧17 mm measured by USS were observed, hCG was administered for ovulation induction. About 30-36 hours thereafter oocyte pick-up was performed followed by in vitro fertilization (IVF) with or without intracytoplasmic sperm injection (ICSI). No more than 3 embryos were replaced.
If during ganirelix treatment a premature LH rise occurred e.g. at least one value of serum LH ≧15 IU/L according to the local LH immunoassay the investigator canceled the cycle or tried to rescue the cycle by giving hCG prematurely. In addition, the investigator notified the sponsor about the occurrence of the LH rise and the central laboratory was requested to confirm the LH rise was ≧10 IU/L according to the central LH immunoassay. Subsequently, all data of such subject with a premature LH rise were forwarded to an Independent Advisory Committee which was installed in order to advice on stopping a treatment arm in case of LH rises during ganirelix treatment.
During the study, some investigators informed the sponsor on one or more cases of extremely low serum LH and failing estradiol concentrations as well as follicle growth arrest after starting ganirelix treatment. For this reason the External Independent Advisory Committee was requested to review all clinical data available in order to evaluate whether these observations were dose related and whether, in their opinion, there was reason to stop one or more treatment arms.
In addition, the Independent Advisory Committee reviewed all rises of LH (≧15 IU/L according to the local LH immunoassay and ≧10 IU/L according to the central LH immunoassay) during ganirelix treatment. Based on their evaluation the External Committee advised the sponsor to stop the highest (2 mg) and lowest (0.0625 mg) treatment dose of ganirelix. The study was completed for the other dosage groups.
In total 333 subjects started recFSH treatment and 332 subjects started ganirelix treatment. Because of major protocol violation 3 subjects were excluded from the analysis. The final number of patients per dosing group are included in Table 1.

Q: For CCN=C(NCC)NCCCC[C@H](NC(=O)[C@H](CC(C)C)NC(=O)[C@@H](CCCCNC(=NCC)NCC)NC(=O)[C@H](Cc1ccc(O)cc1)NC(=O)[C@H](CO)NC(=O)[C@@H](Cc1cccnc1)NC(=O)[C@@H](Cc1ccc(Cl)cc1)NC(=O)[C@@H](Cc1ccc2ccccc2c1)NC(C)=O)C(=O)N1CCC[C@H]1C(=O)N[C@H](C)C(N)=O [ganirelix, N-Acetyl-3-(2-naphtyl)-D-alanyl-4-chloro-D-phenylalanyl-3-(3-pyridyl)-D-alanyl-L-seryl-L-tyrosyl-N^ω,N^ω-diethyl-D-homoarginyl-L-leucin-N^ω,N^ω-diethyl-Lhomoarginyl-L-propyl-D-alanylamide acetate] (Ac-[d2Nal][dPhe(4-Cl)][d3Pal]SY[d(hArg(Et2))]L[hArg(Et2)]P[dA]-NH2), which “suppression of the pituitary-gonadal axis” value (pituitary-gonadal axis; 1 mg or 2 mg daily SC for 8 consecutive days, reproductive age women) is on record?
A: rapid, profound, reversible suppression

Q: What about the “maximal mean LH suppression” value (pituitary-gonadal axis; 8 h after the first injection, 1 mg or 2 mg daily SC) of the same molecule?
A: approximately 60%

Q: What about the “Median serum E2 (estradiol) at the day of hCG (= last day of ganirelix)” value (“Median serum E2 (estradiol) at the day” below) (premature LH surges; 0.0625 mg daily SC) of the same molecule?
A: 1475 pg/mL

Q: What about the “Median serum LH at the day of hCG (= last day of ganirelix)” value (from here on “Median serum LH at the day of hCG”) (premature LH surges; 0.0625 mg daily SC) of the same molecule?
A: 3.56 IU/L

Q: And the “Incidence of LH rises” value (premature LH surges; 0.0625 mg daily SC, N = 31, number of subjects (%))?
A: 5 (16%)

Q: And the “Serum ganirelix concentration versus dose” value (premature LH surges; 0.0625 mg to 2 mg daily SC)?
A: increased in a dose-proportional manner

Q: And the “Median serum E2 (estradiol) at the day” value (premature LH surges; 0.125 mg daily SC)?
A: 1130 pg/mL

Q: And the “Median serum LH at the day of hCG” value (premature LH surges; 0.125 mg daily SC)?
A: 2.46 IU/L

Q: And the “Incidence of LH rises” value (premature LH surges; 0.125 mg daily SC, N = 65, number of subjects (%))?
A: 6 (9.2%)

Q: And the “Median serum E2 (estradiol) at the day” value (premature LH surges; 0.25 mg daily SC)?
A: 1160 pg/mL

Q: And the “Median serum LH at the day of hCG” value (premature LH surges; 0.25 mg daily SC)?
A: 1.73 IU/L

Q: And the “Incidence of LH rises” value (premature LH surges; 0.25 mg daily SC, N = 69, number of subjects (%))?
A: 1 (1.4%)

Q: And the “Median serum E2 (estradiol) at the day” value (premature LH surges; 0.5 mg daily SC)?
A: 823 pg/mL

Q: And the “Median serum LH at the day of hCG” value (premature LH surges; 0.5 mg daily SC)?
A: 1.02 IU/L

Q: And the “Incidence of LH rises” value (premature LH surges; 0.5 mg daily SC, N = 69, number of subjects)?
A: 0

Q: And the “Median serum E2 (estradiol) at the day” value (premature LH surges; 1 mg daily SC)?
A: 703 pg/mL

Q: What about the “Median serum LH at the day of hCG” value (premature LH surges; 1 mg daily SC) of the same molecule?
A: 0.57 IU/L

Q: And the “Incidence of LH rises” value (premature LH surges; 1 mg daily SC, N = 65, number of subjects)?
A: 0

Q: And the “Median serum E2 (estradiol) at the day” value (premature LH surges; 2 mg daily SC)?
A: 430 pg/mL

Q: What about the “Median serum LH at the day of hCG” value (premature LH surges; 2 mg daily SC) of the same molecule?
A: 0.34 IU/L

Q: And the “Incidence of LH rises” value (premature LH surges; 2 mg daily SC, N = 30, number of subjects)?
A: 0

Q: What about the miscarriage rate (premature LH surges; 2 mg dose group) of the same molecule?
A: 13%

Q: What about the “vital pregnancy rate per attempt” value (premature LH surges; 2 mg dose group, per attempt (those who started hormonal treatment)) of the same molecule?
A: 3.8%

Q: And the “vital pregnancy rate per transfer” value (premature LH surges; 2 mg dose group, per transfer (those who had embryo transfer))?
A: 4.3%
